Data as given in patent US11426346B2, “Lutein-containing ophthalmic composition” (Taipei Medical University, priority 2019, dated 2022).

Tests used:
Assay type in all cases: cell-based, human
IL-1β = assay: Gene expression of inflammatory cytokine IL-1β in LPS-induced HCE-2 cells (Real-Time PCR); details: 500 ng/mL LPS 6 hours, then 2 hours treatment, compared with LPS group, FIG. 3A
Method: (§1) 3×10^5 (cell/ml) human corneal epithelial cells (HCE-2) were cultured in a 6-well plate and cultured overnight in an incubator for cell attachment, followed 500 ng/mL lipopolysaccharides (LPS) was added in culture medium for co-cultured with cells for 6 hours to induce cell inflammation. After 6 hours, the medium containing lipopolysaccharide (LPS) was removed, and the medium with the lutein, PVA was added to a 6-well plate. After 2 hours of treatment, the gene expressions of cellular inflammatory cytokines (IL-1β, IL-6, TNF-α) were detected by real-time polymerase chain reaction (Real-Time PCR). […]

IL-6 = assay: Gene expression of inflammatory cytokine IL-6 in LPS-induced HCE-2 cells (Real-Time PCR); details: 500 ng/mL LPS 6 hours, then 2 hours treatment, compared with LPS group, FIG. 3B
Method: as §1

TNF-α = assay: Gene expression of inflammatory cytokine TNF-α in LPS-induced HCE-2 cells (Real-Time PCR); details: 500 ng/mL LPS 6 hours, then 2 hours treatment, compared with LPS group, FIG. 3C
Method: as §1

CC1=C[C@H](O)CC(C)(C)[C@H]1/C=C/C(C)=C/C=C/C(C)=C/C=C/C=C(C)/C=C/C=C(C)/C=C/C1=C(C)C[C@@H](O)CC1(C)C [lutein (L), lutein]
inhibit the expression: gene expression of IL-1β (IL-1β) | gene expression of IL-6 (IL-6) | gene expression of TNF-α (TNF-α)
